Data on 19 molecules can be found in patent US12226424B2, “Target protein degradation compounds, their anti-tumor use, their intermediates and use of intermediates” (ShanghaiTech University, priority 2018, dated 2025).

One experiment deals with SR cells. As to the kind of experiment: Half inhibitory concentration (IC50) on ALK-positive SR cell proliferation (CCK-8). The following applies: Homo sapiens, SR, 72 h, read-out: IC50 (nM)/ SR cell line. The class given is cell-based. As to the method:
ALK-positive SR cells (human large cell immunoblastic lymphoma) were purchased from the American Type Culture Collection (ATCC); H3122 cells (human non-small cell lung cancer) were from the Shanghai University of Science and Technology Lin Haifan's research group.
The cells used in this present disclosure were cultured in a 37° C. incubator containing 5% CO2.
SR cells were seeded in 100 μL RPMI1640 complete medium at a density of 10,000 cells/well. 100 μL of the inoculated cells were treated with 0.5 μL diluted PROTAD compound of the present disclosure to be tested at 10 successively decreasing concentrations (starting at the highest concentration of 10 μM; 5-fold serial dilutions) After the cells were treated with the drug for 72 h, cell viability was determined according to the CCK-8 reagent operating instructions. The negative control was DMSO, and the positive control was a commercial inhibitor. After CCK-8 treatment for 2 h, the value of O.D.450 was measured using a microplate reader.
On to `CCc1cc2c(cc1N1CCC(NC(=O)CCCSc3cccc4c3C(=O)N(C3CCC(=O)NC3=O)C4=O)CC1)C(C)(C)c1[nH]c3cc(C#N)ccc3c1C2=O` (centres unmarked) [SIAIS219013, N-(1-(3-cyano-9-ethyl-6,6-dimethyl-11-oxo-6,11-dihydro-5H-benzo[b]carbazol-8-yl)piperidin-4-yl)-4-((2-(2,6-dioxopiperidin-3-yl)-1,3-dioxoisoindolin-4-yl)thio)butanamide], for which the IC50 was 143 nM.

The experiment is the same for the next values; noted with them: Homo sapiens; SR cells, 72 h, CCK-8; read-out: IC50 on proliferation of ALK-positive cells SR.
In the case of `COc1cc(N2CCC(N3CCN(C)CC3)CC2)ccc1Nc1ncc(Cl)c(Nc2ccccc2P(C)(C)=O)n1` [Brigatinib, reference compound], the IC50 stood at 10.6 nM.

Still in this experiment, the particulars now being: Homo sapiens; SR cells, 72 h drug treatment, CCK-8; read-out: IC50 (nM)/ SR cell line.
`COc1cc(N2CCC(N3CCN(C)CC3)CC2)ccc1Nc1ncc(Cl)c(Nc2ccccc2P(C)(C)=O)n1` [Brigatinib, reference compound]: the IC50 was 2.1 ± 1.2 nM. Same read-out and setting: under `CCc1cc2c(cc1N1CCN(C3CCN(C(=O)CSc4cccc5c4C(=O)N(C4CCC(=O)NC4=O)C5=O)CC3)CC1)C(C)(C)c1[nH]c3cc(C#N)ccc3c1C2=O` (centres unmarked) [SIAIS219005, 8-(4-(1-(2-((2-(2,6-dioxopiperidin-3-yl)-1,3-dioxoisoindolin-4-yl)thio)acetyl)piperidin-4-yl)piperazin-1-yl)-9-ethyl-6,6-dimethyl-11-oxo-6,11-dihydro-5H-benzo[b]carbazole-3-carbonitrile] stands 8.7 nM; under `CCc1cc2c(cc1N1CCC(N3CCN(C(=O)CCCSc4cccc5c4C(=O)N(C4CCC(=O)NC4=O)C5=O)CC3)CC1)C(C)(C)c1[nH]c3cc(C#N)ccc3c1C2=O` (centres unmarked) [SIAIS219006, 8-(4-(4-(4-((2-(2,6-dioxopiperidin-3-yl)-1,3-dioxoisoindolin-4-yl)thio)butanoyl)piperazin-1-yl)piperidin-1-yl)-9-ethyl-6,6-dimethyl-11-oxo-6,11-dihydro-5H-benzo[b]carbazole-3-carbonitrile], 16.4 nM; under `CCc1cc2c(cc1N1CCC(N3CCN(C(=O)CCCCCSc4cccc5c4C(=O)N(C4CCC(=O)NC4=O)C5=O)CC3)CC1)C(C)(C)c1[nH]c3cc(C#N)ccc3c1C2=O` (centres unmarked) [SIAIS219007, 8-(4-(4-(6-((2-(2,6-dioxopiperidin-3-yl)-1,3-dioxoisoindolin-4-yl)thio)hexanoyl)piperazin-1-yl)piperidin-1-yl)-9-ethyl-6,6-dimethyl-11-oxo-6,11-dihydro-5H-benzo[b]carbazole-3-carbonitrile], 50.1 nM.

Regarding `CCc1cc2c(cc1N1CCC(NC(=O)CSc3cccc4c3C(=O)N(C3CCC(=O)NC3=O)C4=O)CC1)C(C)(C)c1[nH]c3cc(C#N)ccc3c1C2=O` (centres unmarked) [SIAIS219012, N-(1-(3-cyano-9-ethyl-6,6-dimethyl-11-oxo-6,11-dihydro-5H-benzo[b]carbazol-8-yl)piperidin-4-yl)-2-((2-(2,6-dioxopiperidin-3-yl)-1,3-dioxoisoindolin-4-yl)thio)acetamide], the IC50 was found to be 146 nM.

As to `CCc1cc2c(cc1N1CCC(NC(=O)CCCCCSc3cccc4c3C(=O)N(C3CCC(=O)NC3=O)C4=O)CC1)C(C)(C)c1[nH]c3cc(C#N)ccc3c1C2=O` (centres unmarked) [SIAIS219014, N-(1-(3-cyano-9-ethyl-6,6-dimethyl-11-oxo-6,11-dihydro-5H-benzo[b]carbazol-8-yl)piperidin-4-yl)-6-((2-(2,6-dioxopiperidin-3-yl)-1,3-dioxoisoindolin-4-yl)thio)hexanamide], the IC50 is 101 nM.

Turning to `CCc1cc2c(cc1N1CCC(NC(=O)COCCOCCSc3cccc4c3C(=O)N(C3CCC(=O)NC3=O)C4=O)CC1)C(C)(C)c1[nH]c3cc(C#N)ccc3c1C2=O` (centres unmarked) [SIAIS219022, N-(1-(3-cyano-9-ethyl-6,6-dimethyl-11-oxo-6,11-dihydro-5H-benzo[b]carbazol-8-yl)piperidin-4-yl)-2-(2-(2-((2-(2,6-dioxopiperidin-3-yl)-1,3-dioxoisoindolin-4-yl)thio)ethoxy)ethoxy)acetamide], the IC50 worked out at 80.5 nM. The same measure, in the same setting: for `COc1cc(N2CCC(NC(=O)CSc3cccc4c3CN(C3CCC(=O)NC3=O)C4=O)CC2)ccc1Nc1ncc(Cl)c(Nc2ccccc2P(C)(C)=O)n1` (centres unmarked) [SIAIS219133, N-(1-(4-((5-chloro-4-((2-(dimethylphosphoryl)phenyl)amino)pyrimidin-2-yl)amino)-3-methoxyphenyl)piperidin-4-yl)-2-((2-(2,6-dioxopiperidin-3-yl)-1-oxoisoindolin-4-yl)thio)acetamide] the value was 2.9 ± 0.1 nM; for `COc1cc(N2CCC(NC(=O)CCSc3cccc4c3CN(C3CCC(=O)NC3=O)C4=O)CC2)ccc1Nc1ncc(Cl)c(Nc2ccccc2P(C)(C)=O)n1` (centres unmarked) [SIAIS219134, N-(1-(4-((5-chloro-4-((2-(dimethylphosphoryl)phenyl)amino)pyrimidin-2-yl)amino)-3-methoxyphenyl)piperidin-4-yl)-3-((2-(2,6-dioxopiperidin-3-yl)-1-oxoisoindolin-4-yl)thio)propanamide], 2.7 ± 0.8 nM; for `COc1cc(N2CCC(NC(=O)CCCSc3cccc4c3CN(C3CCC(=O)NC3=O)C4=O)CC2)ccc1Nc1ncc(Cl)c(Nc2ccccc2P(C)(C)=O)n1` (centres unmarked) [SIAIS219135, N-(1-(4-((5-chloro-4-((2-(dimethylphosphoryl)phenyl)amino)pyrimidin-2-yl)amino)-3-methoxyphenyl)piperidin-4-yl)-4-((2-(2,6-dioxopiperidin-3-yl)-1-oxoisoindolin-4-yl)thio)butanamide], 0.33 ± 0.02 nM. The same measure, in the same setting: for `COc1cc(N2CCC(NC(=O)CCCCSc3cccc4c3CN(C3CCC(=O)NC3=O)C4=O)CC2)ccc1Nc1ncc(Cl)c(Nc2ccccc2P(C)(C)=O)n1` (centres unmarked) [SIAIS219136, N-(1-(4-((5-chloro-4-((2-(dimethylphosphoryl)phenyl)amino)pyrimidin-2-yl)amino)-3-methoxyphenyl)piperidin-4-yl)-5-((2-(2,6-dioxopiperidin-3-yl)-1-oxoisoindolin-4-yl)thio)pentanamide] the value was 0.43 ± 0.09 nM. For the molecule `COc1cc(N2CCC(NC(=O)CCCCCSc3cccc4c3CN(C3CCC(=O)NC3=O)C4=O)CC2)ccc1Nc1ncc(Cl)c(Nc2ccccc2P(C)(C)=O)n1` (centres unmarked) [SIAIS219137, N-(1-(4-((5-chloro-4-((2-(dimethylphosphoryl)phenyl)amino)pyrimidin-2-yl)amino)-3-methoxyphenyl)piperidin-4-yl)-6-((2-(2,6-dioxopiperidin-3-yl)-1-oxoisoindolin-4-yl)thio)hexanamide], the IC50 is 0.48 ± 0.05 nM. For `COc1cc(N2CCC(NC(=O)CCCCCCSc3cccc4c3CN(C3CCC(=O)NC3=O)C4=O)CC2)ccc1Nc1ncc(Cl)c(Nc2ccccc2P(C)(C)=O)n1` (centres unmarked) [SIAIS219138, N-(1-(4-((5-chloro-4-((2-(dimethylphosphoryl)phenyl)amino)pyrimidin-2-yl)amino)-3-methoxyphenyl)piperidin-4-yl)-7-((2-(2,6-dioxopiperidin-3-yl)-1-oxoisoindolin-4-yl)thio)heptanamide], the IC50 turned out to be 0.29 ± 0.01 nM. As to `COc1cc(N2CCC(NC(=O)COCCSc3cccc4c3CN(C3CCC(=O)NC3=O)C4=O)CC2)ccc1Nc1ncc(Cl)c(Nc2ccccc2P(C)(C)=O)n1` (centres unmarked) [SIAIS219139, N-(1-(4-((5-chloro-4-((2-(dimethylphosphoryl)phenyl)amino)pyrimidin-2-yl)amino)-3-methoxyphenyl)piperidin-4-yl)-2-(2-((2-(2,6-dioxopiperidin-3-yl)-1-oxoisoindolin-4-yl)thio)ethoxy)acetamide], the IC50 is 1.08 ± 0.1 nM. For the molecule `COc1cc(N2CCC(NC(=O)COCCOCCSc3cccc4c3CN(C3CCC(=O)NC3=O)C4=O)CC2)ccc1Nc1ncc(Cl)c(Nc2ccccc2P(C)(C)=O)n1` (centres unmarked) [SIAIS219140, N-(1-(4-((5-chloro-4-((2-(dimethylphosphoryl)phenyl)amino)pyrimidin-2-yl)amino)-3-methoxyphenyl)piperidin-4-yl)-2-(2-(2-((2-(2,6-dioxopiperidin-3-yl)-1-oxoisoindolin-4-yl)thio)ethoxy)ethoxy)acetamide], the IC50 was determined as 5.08 ± 0.62 nM. On to `COc1cc(N2CCC(NC(=O)COCCOCCOCCSc3cccc4c3CN(C3CCC(=O)NC3=O)C4=O)CC2)ccc1Nc1ncc(Cl)c(Nc2ccccc2P(C)(C)=O)n1` (centres unmarked) [SIAIS219141, N-(1-(4-((5-chloro-4-((2-(dimethylphosphoryl)phenyl)amino)pyrimidin-2-yl)amino)-3-methoxyphenyl)piperidin-4-yl)-2-(2-(2-(2-((2-(2,6-dioxopiperidin-3-yl)-1-oxoisoindolin-4-yl)thio)ethoxy)ethoxy)ethoxy)acetamide], for which the IC50 amounted to 5 ± 0.71 nM. `COc1cc(N2CCC(NC(=O)COCCOCCOCCOCCSc3cccc4c3CN(C3CCC(=O)NC3=O)C4=O)CC2)ccc1Nc1ncc(Cl)c(Nc2ccccc2P(C)(C)=O)n1` (centres unmarked) [SIAIS219142, N-(1-(4-((5-chloro-4-((2-(dimethylphosphoryl)phenyl)amino)pyrimidin-2-yl)amino)-3-methoxyphenyl)piperidin-4-yl)-14-((2-(2,6-dioxopiperidin-3-yl)-1-oxoisoindolin-4-yl)thio)-3,6,9,12-tetraoxatetradecan-1-amide]: the IC50 was found to be 7 ± 1 nM. On the same count and under the same terms, under `COc1cc(N2CCC(NC(=O)COCCOCCOCCOCCOCCSc3cccc4c3CN(C3CCC(=O)NC3=O)C4=O)CC2)ccc1Nc1ncc(Cl)c(Nc2ccccc2P(C)(C)=O)n1` (centres unmarked) [SIAIS219143, N-(1-(4-((5-chloro-4-((2-(dimethylphosphoryl)phenyl)amino)pyrimidin-2-yl)amino)-3-methoxyphenyl)piperidin-4-yl)-17-((2-(2,6-dioxopiperidin-3-yl)-1-oxoisoindolin-4-yl)thio)-3,6,9,12,15-pentaoxaheptadecan-1-amide] stands 5.53 ± 1.28 nM.
